Reference: publication PMC10817917, “Alkyl deoxyglycoside-polymyxin combinations against critical priority carbapenem-resistant gram-negative bacteria” (Scientific Reports, 2024)
Converted amounts (≈) assume the structure as drawn. Read-outs that look alike come from different tables or passages of the source.

How the values were obtained:
K. pneumoniae CQ1942 = assay: Broth microdilution MIC, glycosides with or without polymyxins; format: cell-based, Klebsiella pneumoniae
E. cloacae CQ1941 = assay: Broth microdilution MIC/MBC, glycosides with or without polymyxins; format: cell-based
A. baumannii CQ4322 = assay: as above; format: cell-based, Acinetobacter baumannii; conditions: for MIC: agent alone, no adjuvant (polymyxin conc. 0)
E. coli ATCC 25922 = assay: as above; format: cell-based, Escherichia coli
P. aeruginosa CQ4924 = assay: Broth microdilution MIC, glycosides with or without polymyxins; format: cell-based, Pseudomonas aeruginosa; conditions: for RIS (susceptibility category) / MIC (antibiotic susceptibility profile): antibiotic alone; for RIS (susceptibility category) / MIC (antibiotic susceptibility profile) / MIC: strain H; for MIC: agent alone, no adjuvant (polymyxin conc. 0)
K. pneumoniae CQ1947 = assay: as above; format: cell-based, Klebsiella pneumoniae
K. pneumoniae CQ4921 = assay: Broth microdilution MIC/MBC, glycosides with or without polymyxins; format: cell-based, Klebsiella pneumoniae
HEK-293 cells = tested on: HEK-293 cells; design: method as in PMID 30532748; conditions: polymyxin alone; cited from earlier work
Caco-2 cells = assay: Resazurin cell viability assay (cytotoxicity); format: cell-based, human; conditions: tested alone (no polymyxin adjuvant); 72 h
Description: (§1) Cytotoxicity of each compound alone or in combination with different polymyxin concentrations was evaluated through the resazurin cell viability assay[49] in human embryonic HEK-293T cells, as well as in human colon adenocarcinoma Caco-2 cells, after a 72-h long incubation period.
(§2) HEK-293T and Caco-2 cells were grown in RPMI 1640 medium (VWR) supplemented with 10% FBS (Biowest), 1% PenStrep (Sigma Aldrich), and 1% glutamine (Biowest) in a humidified incubator at 37 °C with a 5% CO2 atmosphere. Twice a week, the medium was aspirated, the cells were washed with DPBS (VWR), trypsinized with trypsin–EDTA solution (Biowest), and resuspended in fresh culture medium. The dose-dependent effects of each glycoside or glycoside-polymyxin combination were evaluated by the resazurin cell viability assay. Polymyxins (colistin sulfate and PMB sulfate for microbiological assays, European Pharmacopoeia Reference Standards, Sigma-Aldrich) were firstly dissolved in sterilized Mili-Q water to a stock concentration of 1 mg/mL, while glycosides were dissolved in DMSO to a stock concentration of 30 mM. 1.5 × 10^4 cells/well in 96.5 µL of medium were seeded onto 96-well plates and incubated at 37 °C for 24 h. For each compound, ten stock dilutions (with concentrations from 750 to 75 µM) were prepared in fresh medium immediately prior to incubation. 16 µL of each dilution were added to each well so that the final glycoside concentrations ranged from 100 to 10 µM in each row in a final assay volume of 120 µL. In addition, the previously prepared polymyxin stock solutions were diluted in fresh medium, affording new stocks of 8, 4, and 2 µg/mL. The same volume (7.5 µL/well) of PMB or colistin was then added to each row to achieve a final polymyxin concentration of 0.5, 0.25, and 0.125 µg/mL, respectively, regardless of the glycoside concentration. In assays without polymyxin, the same volume (7.5 µL/well) of medium was added. In all assays, the maximum DMSO concentration was 0.33%. After a 72-h incubation at 37 °C, 12 µL of a 0.15 mg/mL resazurin (Sigma-Aldrich) in sterilized Mili-Q water were added to each well, and the plates were left incubating for another 4 h at 37 °C. Resorufin was measured at 570/600 nm, and the percentage of resazurin reduction, corresponding to the cell viability percentage, was calculated according to Eq. (1)[60]. IC50 values were obtained by best fitting the dose-dependent inhibition curves using the Prism 9® software. The results were expressed as the mean ± SD of three independent replicates, with only data from analysis with R^2 > 0.90 being considered.1 %Cellviability=Abssample-Absmediumcontrol/Abscellcontrol-Absmediumcontrol×100

HEK-293T cells = assay: Resazurin cell viability assay (cytotoxicity); format: cell-based, human; conditions: tested alone (no polymyxin adjuvant); 72 h
Description: as §1, §2

E. coli NCTC 13846 = assay: Broth microdilution MIC/MBC, glycosides with or without polymyxins; format: cell-based, Escherichia coli; conditions: strain B
[1] = Klebsiella pneumoniae, CQ1942, antibiotic alone, strain E, read-out: MIC (antibiotic susceptibility profile)
[2] = Enterobacter cloacae, CQ1941, antibiotic alone, strain D, read-out: MIC (antibiotic susceptibility profile)
[3] = Escherichia coli, ATCC25922, antibiotic alone, strain A, read-out: MIC (antibiotic susceptibility profile)
[4] = Klebsiella pneumoniae, CQ1947, antibiotic alone, strain F, read-out: MIC (antibiotic susceptibility profile)
[5] = Klebsiella pneumoniae, CQ4921, antibiotic alone, strain C, read-out: MIC (antibiotic susceptibility profile)
[6] = agent alone, no adjuvant (polymyxin conc. 0), strain E
[7] = agent alone, no adjuvant (polymyxin conc. 0), strain D
[8] = agent alone, no adjuvant (polymyxin conc. 0), strain A
[9] = agent alone, no adjuvant (polymyxin conc. 0), strain F
[10] = agent alone, no adjuvant (polymyxin conc. 0), strain C

C[C@@H](O)[C@H]1C(=O)N2C(C(=O)O)=C(S[C@@H]3CN[C@H](C(=O)Nc4cccc(C(=O)O)c4)C3)[C@H](C)[C@H]12 [Ertapenem, reference compound]
MIC (K. pneumoniae CQ1942; [1]): ≥ 128 µg/mL | MIC (E. cloacae CQ1941; [2]): 64 µg/mL (≈ 135 µM) | RIS (susceptibility category) (A. baumannii CQ4322; antibiotic alone, strain G): ERP | MIC (E. coli ATCC 25922; [3]): 0.008 µg/mL (≈ 0.0168 µM) | RIS (susceptibility category) (P. aeruginosa CQ4924): ERP | MIC (K. pneumoniae CQ1947; [4]): 16 to 64 µg/mL (≈ 33.6 to 135 µM) | MIC (K. pneumoniae CQ4921; [5]): 8 to 64 µg/mL (≈ 16.8 to 135 µM)

CNC(C)C1CCC(N)C(OC2C(N)CC(N)C(OC3OCC(C)(O)C(NC)C3O)C2O)O1 (centres unmarked) [Gentamicin, reference compound]
MIC (K. pneumoniae CQ1942; [1]): 1 µg/mL (≈ 2.09 µM) | MIC (E. cloacae CQ1941; [2]): ≥ 128 µg/mL | MIC (antibiotic susceptibility profile) (A. baumannii CQ4322; antibiotic alone, strain G): 32 to 64 µg/mL | MIC (E. coli ATCC 25922; [3]): 0.5 µg/mL (≈ 1.05 µM) | MIC (antibiotic susceptibility profile) (P. aeruginosa CQ4924): 2 µg/mL (≈ 4.19 µM) | RIS (susceptibility category) (P. aeruginosa CQ4924): wt | MIC (K. pneumoniae CQ1947; [4]): 64 µg/mL (≈ 134 µM) | MIC (K. pneumoniae CQ4921; [5]): 0.25 to 0.5 µg/mL (≈ 0.523 to 1.05 µM)

C[C@@H](O)[C@H]1C(=O)N2C(C(=O)O)=C(SCCN=CN)C[C@H]12 [Imipenem, reference compound]
MIC (K. pneumoniae CQ1942; [1]): ≥ 128 µg/mL | MIC (E. cloacae CQ1941; [2]): 16 µg/mL (≈ 53.4 µM) | MIC (antibiotic susceptibility profile) (A. baumannii CQ4322; antibiotic alone, strain G): 32 to 64 µg/mL | MIC (E. coli ATCC 25922; [3]): 0.125 to 0.25 µg/mL (≈ 0.418 to 0.835 µM) | MIC (antibiotic susceptibility profile) (P. aeruginosa CQ4924): 16 µg/mL (≈ 53.4 µM) | MIC (K. pneumoniae CQ1947; [4]): 8 to 16 µg/mL (≈ 26.7 to 53.4 µM) | MIC (K. pneumoniae CQ4921; [5]): 4 µg/mL (≈ 13.4 µM)

C[C@@H](O)[C@H]1C(=O)N2C(C(=O)O)=C(S[C@@H]3CN[C@H](C(=O)N(C)C)C3)[C@H](C)[C@H]12 [Meropenem, reference compound]
MIC (K. pneumoniae CQ1942; [1]): ≥ 128 µg/mL | MIC (E. cloacae CQ1941; [2]): 32 to 64 µg/mL (≈ 83.4 to 167 µM) | MIC (E. coli ATCC 25922; [3]): 0.016 to 0.03 µg/mL (≈ 0.0417 to 0.0782 µM) | MIC (antibiotic susceptibility profile) (P. aeruginosa CQ4924): 16 µg/mL (≈ 41.7 µM) | MIC (K. pneumoniae CQ1947; [4]): 16 to 32 µg/mL (≈ 41.7 to 83.4 µM) | MIC (K. pneumoniae CQ4921; [5]): 4 µg/mL (≈ 10.4 µM)

NC[C@H]1O[C@H](O[C@H]2[C@H](O)[C@@H](O[C@H]3O[C@H](CO)[C@@H](O)[C@H](N)[C@H]3O)[C@H](N)C[C@@H]2N)[C@H](N)C[C@@H]1O [Tobramycin, reference compound]
MIC (K. pneumoniae CQ1942; [1]): 16 µg/mL (≈ 34.2 µM) | MIC (E. cloacae CQ1941; [2]): ≥ 128 µg/mL | MIC (antibiotic susceptibility profile) (A. baumannii CQ4322; antibiotic alone, strain G): 32 µg/mL (≈ 68.4 µM) | MIC (E. coli ATCC 25922; [3]): 0.5 µg/mL (≈ 1.07 µM) | MIC (antibiotic susceptibility profile) (P. aeruginosa CQ4924): 1 µg/mL (≈ 2.14 µM) | MIC (K. pneumoniae CQ1947; [4]): ≥ 128 µg/mL | MIC (K. pneumoniae CQ4921; [5]): 0.25 µg/mL (≈ 0.535 µM)

colistin [reference compound]
IC50 (HEK-293 cells): > 1000 µg/mL | MIC (K. pneumoniae CQ1942; [6]): 0.5 µg/mL | MICB (MIC of colistin individually) (K. pneumoniae CQ1942; alone): 0.5 µg/mL | MIC (antibiotic susceptibility profile) (K. pneumoniae CQ1942; antibiotic alone, strain E): 0.125 to 1 µg/mL | MIC (E. cloacae CQ1941; [7]): 0.5 µg/mL | MICB (MIC of colistin individually) (E. cloacae CQ1941; alone): 0.5 µg/mL | MIC (antibiotic susceptibility profile) (E. cloacae CQ1941; antibiotic alone, strain D): 0.125 to 1 µg/mL | MIC (A. baumannii CQ4322; strain G): 0.5 µg/mL | MICB (MIC of colistin individually) (A. baumannii CQ4322; alone): 0.5 µg/mL | MIC (antibiotic susceptibility profile) (A. baumannii CQ4322; antibiotic alone, strain G): 0.5 to 1 µg/mL | MIC (E. coli ATCC 25922; [8]): 0.5 µg/mL | MICB (MIC of colistin individually) (E. coli ATCC 25922; alone): 0.5 µg/mL | MIC (antibiotic susceptibility profile) (E. coli ATCC 25922; antibiotic alone, strain A): 0.5 to 1 µg/mL | IC50 (Caco-2 cells): > 115 µg/mL | IC50 (HEK-293T cells): > 115 µg/mL | MIC (P. aeruginosa CQ4924): 1 µg/mL | MICB (MIC of colistin individually) (P. aeruginosa CQ4924; alone): 1 µg/mL | MIC (antibiotic susceptibility profile) (P. aeruginosa CQ4924): 1 to 2 µg/mL | MIC (antibiotic susceptibility profile) (E. coli NCTC 13846; antibiotic alone): 4 µg/mL | MIC (K. pneumoniae CQ1947; [9]): 0.5 µg/mL | MICB (MIC of colistin individually) (K. pneumoniae CQ1947; alone): 0.5 µg/mL | MIC (antibiotic susceptibility profile) (K. pneumoniae CQ1947; antibiotic alone, strain F): 0.125 to 1 µg/mL | MIC (K. pneumoniae CQ4921; [10]): 0.5 µg/mL | MICB (MIC of colistin individually) (K. pneumoniae CQ4921; alone): 0.5 µg/mL | MIC (antibiotic susceptibility profile) (K. pneumoniae CQ4921; antibiotic alone, strain C): 0.125 to 1 µg/mL

polymyxin B [PMB, reference compound]
IC50 (HEK-293 cells): > 500 µg/mL | MIC (K. pneumoniae CQ1942; [6]): 0.5 µg/mL | MIC (E. cloacae CQ1941; [7]): 0.5 µg/mL | MIC (A. baumannii CQ4322; strain G): 0.5 µg/mL | MIC (E. coli ATCC 25922; [8]): 0.5 µg/mL | IC50 (Caco-2 cells): > 115 µg/mL | IC50 (HEK-293T cells): > 115 µg/mL | MIC (P. aeruginosa CQ4924): 1 µg/mL | MIC (E. coli NCTC 13846; agent alone, no adjuvant (polymyxin conc. 0)): 4 µg/mL | MIC (K. pneumoniae CQ1947; [9]): 0.5 µg/mL | MIC (K. pneumoniae CQ4921; [10]): 0.5 µg/mL
